Measurements taken from US8507684B2, “1-cyclopropyl-8-methyl-7-[5-methyl-6-(methylamino)-3-pyridinyl]-4-oxo-1,4-dihydro-3-quinolinecarboxylic acid salts” (Ferrer Internacional S.A., priority 2010, dated 2013).

Experiment: Aqueous solubility of the salts determined by HPLC
Format: physicochemical
Settings: for pH: pH of Table 2 for the aqueous solubility samples (water, 2 h at 20° C.); for solubility at 2 h: thermodynamic from solid, read-out: Solubility in H2O
Method: To determine the aqueous solubility of the salts, suspensions of the salts were shaken 2 h at 20° C. and 400 rpm. Afterwards the mixtures were filtered (0.1 μm centrifuge filter) and the concentrations were determined by HPLC.

[1] = suspension in water shaken 2 h at 20° C. and 400 rpm, filtered (0.1 μm), concentration by HPLC

| Compound | pH | Solubility in H2O [1] [µg/mL] | solubility at 2 h [1] [µg/mL] | solubility in water (in words) (general statement, no conditions given) |
| --- | --- | --- | --- | --- |
| 1-Cyclopropyl-8-methyl-7-[5-methyl-6-(methylamino)-3-pyridinyl]-4-oxo-1,4-dihydro-3-quinolinecarboxylic acid hemi-fumarate salt | 4.8 | 89.7 | – | – |
| CNc1ncc(-c2ccc3c(=O)c(C(=O)O)cn(C4CC4)c3c2C)cc1C.O=C(O)CC(O)(CC(=O)O)C(=O)O [Citrate, 1-Cyclopropyl-8-methyl-7-[5-methyl-6-(methylamino)-3-pyridinyl]-4-oxo-1,4-dihydro-3-quinolinecarboxylic acid citrate salt] | 2.7 | – | 5220 | – |
| CNc1ncc(-c2ccc3c(=O)c(C(=O)O)cn(C4CC4)c3c2C)cc1C [Free drug, 1-Cyclopropyl-8-methyl-7-[5-methyl-6-(methylamino)-3-pyridinyl]-4-oxo-1,4-dihydro-3-quinolinecarboxylic acid] | 8.5 | – | 19 | low solubility in water |
| CNc1ncc(-c2ccc3c(=O)c(C(=O)O)cn(C4CC4)c3c2C)cc1C.Cl.O [Hydrochloride monohydrate, 1-Cyclopropyl-8-methyl-7-[5-methyl-6-(methylamino)-3-pyridinyl]-4-oxo-1,4-dihydro-3-quinolinecarboxylic acid hydrochloride monohydrate salt] | 2.8 | – | 2000 | – |
| CNc1ncc(-c2ccc3c(=O)c(C(=O)O)cn(C4CC4)c3c2C)cc1C.O=C(O)C(O)C(O)C(=O)O [L-Tartrate, 1-Cyclopropyl-8-methyl-7-[5-methyl-6-(methylamino)-3-pyridinyl]-4-oxo-1,4-dihydro-3-quinolinecarboxylic acid L-tartrate salt] | 2.5 | – | 4600 | – |
| CNc1ncc(-c2ccc3c(=O)c(C(=O)O)cn(C4CC4)c3c2C)cc1C.O=C(O)/C=C\C(=O)O [Maleate, 1-Cyclopropyl-8-methyl-7-[5-methyl-6-(methylamino)-3-pyridinyl]-4-oxo-1,4-dihydro-3-quinolinecarboxylic acid maleate salt] | 5.3 | – | 149 | – |
| CNc1ncc(-c2ccc3c(=O)c(C(=O)O)cn(C4CC4)c3c2C)cc1C.CS(=O)(=O)O [Mesylate, 1-Cyclopropyl-8-methyl-7-[5-methyl-6-(methylamino)-3-pyridinyl]-4-oxo-1,4-dihydro-3-quinolinecarboxylic acid mesylate salt] | 2.4 | – | 113000 | – |
| CNc1ncc(-c2ccc3c(=O)c(C(=O)[O-])cn(C4CC4)c3c2C)cc1C.[K+] [Potassium, 1-Cyclopropyl-8-methyl-7-[5-methyl-6-(methylamino)-3-pyridinyl]-4-oxo-1,4-dihydro-3-quinolinecarboxylic acid potassium salt] | 9.8 | – | 109000 | – |
| CNc1ncc(-c2ccc3c(=O)c(C(=O)[O-])cn(C4CC4)c3c2C)cc1C.[Na+] [Sodium, 1-Cyclopropyl-8-methyl-7-[5-methyl-6-(methylamino)-3-pyridinyl]-4-oxo-1,4-dihydro-3-quinolinecarboxylic acid sodium salt] | 9.0 | – | 159000 | – |
